# Experiments:
# Format in all cases: ADME
# [1] = target: T1, Mitochondrial amidoxime-reducing component 1 (Homo sapiens, UniProt Q5VT66); assay: Substrate activity at human mARC1 expressed in Escherichia coli assessed as turnover rates at 3 mM pre-incubated for 3 mins followed by NADH addition and measured after 15 mins by UV-Visible spectroscopy based NADH assay; conditions: 0.25 h, 3000 µM
# T1 sequence (Q5VT66 whole entry): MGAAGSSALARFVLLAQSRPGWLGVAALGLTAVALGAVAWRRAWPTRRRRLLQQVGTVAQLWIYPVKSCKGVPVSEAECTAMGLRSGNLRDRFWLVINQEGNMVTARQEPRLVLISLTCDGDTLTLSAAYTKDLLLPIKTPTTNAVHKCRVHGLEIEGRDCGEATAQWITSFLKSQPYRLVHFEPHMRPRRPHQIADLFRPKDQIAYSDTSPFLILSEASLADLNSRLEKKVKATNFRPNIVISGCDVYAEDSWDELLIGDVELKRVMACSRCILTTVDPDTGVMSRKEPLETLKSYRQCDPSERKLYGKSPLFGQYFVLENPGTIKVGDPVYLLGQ
# [2] = target: T2, Mitochondrial amidoxime reducing component 2 (Homo sapiens, UniProt Q969Z3); assay: Substrate activity at human mARC2 expressed in Escherichia coli assessed as turnover rates at 3 mM pre-incubated for 3 mins followed by NADH addition and measured after 15 mins by UV-Visible spectroscopy based NADH assay; conditions: 0.25 h, 3000 µM
# T2 sequence (Q969Z3 whole entry): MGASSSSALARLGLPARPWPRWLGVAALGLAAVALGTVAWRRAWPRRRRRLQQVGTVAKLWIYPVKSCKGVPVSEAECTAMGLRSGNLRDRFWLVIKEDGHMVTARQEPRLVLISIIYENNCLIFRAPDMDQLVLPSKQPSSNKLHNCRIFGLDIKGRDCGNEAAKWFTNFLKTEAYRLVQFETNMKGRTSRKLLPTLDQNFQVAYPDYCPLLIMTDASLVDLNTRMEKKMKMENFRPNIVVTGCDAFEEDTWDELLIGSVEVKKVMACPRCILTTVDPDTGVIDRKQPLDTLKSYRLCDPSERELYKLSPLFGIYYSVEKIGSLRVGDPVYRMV
# [3] = target: T1, Mitochondrial amidoxime-reducing component 1; assay: Substrate activity at human mARC1 expressed in Escherichia coli assessed as turnover rates at 3 mM pre-incubated for 3 mins followed by NADH addition and measured after 15 mins by LC-MS analysis based assay; conditions: 0.25 h, 3000 µM
# [4] = target: T2, Mitochondrial amidoxime reducing component 2; assay: Substrate activity at human mARC2 expressed in Escherichia coli assessed as turnover rates at 3 mM pre-incubated for 3 mins followed by NADH addition and measured after 15 mins by LC-MS analysis based assay; conditions: 0.25 h, 3000 µM
# [5] = target: T1, Mitochondrial amidoxime-reducing component 1; assay: Substrate activity at human mARC1 expressed in Escherichia coli assessed as turnover rates at 500 uM pre-incubated for 3 mins followed by NADH addition and measured after 15 mins by UV-Visible spectroscopy based NADH assay; conditions: 0.25 h
# [6] = target: T2, Mitochondrial amidoxime reducing component 2; assay: Substrate activity at human mARC2 expressed in Escherichia coli assessed as turnover rates at 500 uM pre-incubated for 3 mins followed by NADH addition and measured after 15 mins by UV-Visible spectroscopy based NADH assay; conditions: 0.25 h
# [7] = target: T1, Mitochondrial amidoxime-reducing component 1; assay: Substrate activity at human mARC1 expressed in Escherichia coli assessed as turnover rates at 500 uM pre-incubated for 3 mins followed by NADH addition and measured after 15 mins by LC-MS analysis based assay; conditions: 0.25 h
# [8] = target: T2, Mitochondrial amidoxime reducing component 2; assay: Substrate activity at human mARC2 expressed in Escherichia coli assessed as turnover rates at 500 uM pre-incubated for 3 mins followed by NADH addition and measured after 15 mins by LC-MS analysis based assay; conditions: 0.25 h
# [9] = target: T1, Mitochondrial amidoxime-reducing component 1; assay: Substrate activity at human mARC1 expressed in Escherichia coli assessed as turnover rates at 1 mM pre-incubated for 3 mins followed by NADH addition and measured after 15 mins by UV-Visible spectroscopy based NADH assay; conditions: 0.25 h, 1000 µM
# [10] = target: T2, Mitochondrial amidoxime reducing component 2; assay: Substrate activity at human mARC2 expressed in Escherichia coli assessed as turnover rates at 1 mM pre-incubated for 3 mins followed by NADH addition and measured after 15 mins by UV-Visible spectroscopy based NADH assay; conditions: 0.25 h, 1000 µM
# [11] = target: T1, Mitochondrial amidoxime-reducing component 1; assay: Substrate activity at human mARC1 expressed in Escherichia coli assessed as turnover rates at 1 mM pre-incubated for 3 mins followed by NADH addition and measured after 15 mins by LC-MS analysis based assay; conditions: 0.25 h, 1000 µM
# [12] = target: T2, Mitochondrial amidoxime reducing component 2; assay: Substrate activity at human mARC2 expressed in Escherichia coli assessed as turnover rates at 1 mM pre-incubated for 3 mins followed by NADH addition and measured after 15 mins by LC-MS analysis based assay; conditions: 0.25 h, 1000 µM
# [13] = target: T1, Mitochondrial amidoxime-reducing component 1; assay: Substrate activity at human mARC1 expressed in Escherichia coli assessed as turnover rates at 200 uM pre-incubated for 3 mins followed by NADH addition and measured after 15 mins by UV-Visible spectroscopy based NADH assay; conditions: 0.25 h
# [14] = target: T2, Mitochondrial amidoxime reducing component 2; assay: Substrate activity at human mARC2 expressed in Escherichia coli assessed as turnover rates at 200 uM pre-incubated for 3 mins followed by NADH addition and measured after 15 mins by UV-Visible spectroscopy based NADH assay; conditions: 0.25 h
# [15] = target: T1, Mitochondrial amidoxime-reducing component 1; assay: Substrate activity at human mARC1 expressed in Escherichia coli assessed as turnover rates at 200 uM pre-incubated for 3 mins followed by NADH addition and measured after 15 mins by LC-MS analysis based assay; conditions: 0.25 h
# [16] = target: T2, Mitochondrial amidoxime reducing component 2; assay: Substrate activity at human mARC2 expressed in Escherichia coli assessed as turnover rates at 200 uM pre-incubated for 3 mins followed by NADH addition and measured after 15 mins by LC-MS analysis based assay; conditions: 0.25 h
structure (smiles),measurement,setting,value
CN(CCCC(=O)c1cccnc1)N=O,Activity,[1]; BLD = below limit of detection,Bld
same,Activity,[2]; BLD = below limit of detection,Bld
same,Activity,[3]; BLD = below limit of detection,Bld
same,Activity,[4]; BLD = below limit of detection,Bld
NC(=NO)c1ccccc1 [BENZAMIDOXIME],Activity,[1],499.8 nmol/mg/min
same,Activity,[2],394.3 nmol/mg/min
same,Activity,[3],549.6 nmol/mg/min
same,Activity,[4],373.9 nmol/mg/min
NC(=O)NO [HYDROXYUREA],Activity,[1],471.5 nmol/mg/min
same,Activity,[2],34.4 nmol/mg/min
N=C(NO)N/N=C/c1c(Cl)cccc1Cl [GUANOXABENZ],Activity,[5],951.2 nmol/mg/min
same,Activity,[6],947.1 nmol/mg/min
same,Activity,[7],988 nmol/mg/min
same,Activity,[8],967.5 nmol/mg/min
Cc1oncc1C(=O)Nc1ccc(C(F)(F)F)cc1 [LEFLUNOMIDE],Activity,[5]; BLD = below limit of detection,Bld
same,Activity,[6]; BLD = below limit of detection,Bld
same,Activity,[7]; BLD = below limit of detection,Bld
same,Activity,[8]; BLD = below limit of detection,Bld
NS(=O)(=O)Cc1noc2ccccc12 [ZONISAMIDE],Activity,[9]; BLD = below limit of detection,Bld
same,Activity,[10]; BLD = below limit of detection,Bld
same,Activity,[11]; BLD = below limit of detection,Bld
same,Activity,[12]; BLD = below limit of detection,Bld
Cc1cn([C@H]2C[C@H](N=[N+]=[N-])[C@@H](CO)O2)c(=O)[nH]c1=O [ZIDOVUDINE],Activity,[1]; BLD = below limit of detection,Bld
same,Activity,[2]; BLD = below limit of detection,Bld
same,Activity,[3]; BLD = below limit of detection,Bld
same,Activity,[4]; BLD = below limit of detection,Bld
NC(=O)c1ccc[n+]([O-])c1,Activity,[1],209.9 nmol/mg/min
same,Activity,[2]; BLD = below limit of detection,Bld
same,Activity,[3],239.3 nmol/mg/min
same,Activity,[4]; BLD = below limit of detection,Bld
O=CN(O)CCCP(=O)([O-])O.[Na+] [FOSMIDOMYCIN SODIUM],Activity,[1],7.2 nmol/mg/min
same,Activity,[2],27.8 nmol/mg/min
CC(c1cc2ccccc2s1)N(O)C(N)=O (stereo not given) [ZILEUTON],Activity,[9],6.1 nmol/mg/min
same,Activity,[10],8.3 nmol/mg/min
same,Activity,[11],2.3 nmol/mg/min
same,Activity,[12],0.9 nmol/mg/min
C=C1C(=O)O[C@@H]2CC[N+]3([O-])CC=C(COC(=O)[C@](C)(O)[C@H](C)[C@H]1C)[C@H]23 (stereo not given in full),Activity,[9],12.7 nmol/mg/min
same,Activity,[10]; BLD = below limit of detection,Bld
same,Activity,[11],17.6 nmol/mg/min
same,Activity,[12]; BLD = below limit of detection,Bld
C[N+](C)([O-])CCC=C1c2ccccc2CCc2ccccc21 [AMITRIPTYLINOXIDE],Activity,[1],9.5 nmol/mg/min
same,Activity,[2]; BLD = below limit of detection,Bld
same,Activity,[3],3.1 nmol/mg/min
same,Activity,[4]; BLD = below limit of detection,Bld
OC[C@H]1O[C@@H](n2cnc3c(NO)ncnc32)[C@H](O)[C@@H]1O,Activity,[9],845.7 nmol/mg/min
same,Activity,[10],271.6 nmol/mg/min
same,Activity,[11],954.5 nmol/mg/min
same,Activity,[12],291 nmol/mg/min
O=c1nc(NO)ccn1[C@@H]1O[C@H](CO)[C@@H](O)[C@H]1O [N-HYDROXYCYTIDINE],Activity,[1],354.7 nmol/mg/min
same,Activity,[2],142.1 nmol/mg/min
same,Activity,[3],354.8 nmol/mg/min
same,Activity,[4],184.2 nmol/mg/min
O=C1Cc2cc(CCN3CCN(c4nsc5ccccc45)CC3)c(Cl)cc2N1 [ZIPRASIDONE],Activity,[13]; BLD = below limit of detection,Bld
same,Activity,[14]; BLD = below limit of detection,Bld
same,Activity,[15]; BLD = below limit of detection,Bld
same,Activity,[16]; BLD = below limit of detection,Bld
NS(=O)(=O)NCCNc1nonc1C(=NO)Nc1ccc(F)c(Br)c1 [EPACADOSTAT],Activity,[13],10.4 nmol/mg/min
same,Activity,[14],24.3 nmol/mg/min
same,Activity,[15],4.1 nmol/mg/min
same,Activity,[16],17.9 nmol/mg/min

# Reference: ChEMBL document CHEMBL4613226, “Drug Metabolism by the Mitochondrial Amidoxime Reducing Component (mARC): Rapid Assay and Identification of New Substrates” (J Med Chem, 2020)
